Measured values taken from US20170290336A1, “Isolated Bacterial Strain of the Genus Burkholderia and Pesticidal Metabolites Therefrom” (Marrone Bio Innovations, Inc., priority 2010, published 2017).

Tests used:
[1] = system: green peach aphid (Myzus persicae); test: Sucking insect test in vivo on mustard plants; settings: positive control (Avid) sprayed; 10 aphids at Day 0
Method: The in vivo efficacy of the filtered whole cell broth is tested in a plant assay with mustard plants and green peach aphid (Myzus persicae) as the test insect. Approximately one-month-old Florida Broadleaf mustard (Brassica sp.) plants are sprayed with two different concentrations (1× and 0.5×) of the filter sterilized whole cell broth of Burkholderia sp. using a Paasche airbrush. Water and a commercial product of avermectin (Avid) are used as negative and positive controls, respectively. The plants are allowed to dry on the benchtop, after which they are placed in a 6-cup plastic container with a lid with airholes. Ten aphids at various developmental stages are placed on each test plant, and the plants are incubated under growth lamps for 7 days at 25° C. Daily evaluations for the number of aphids on each plant (summarized in table Table 8 below) are made and recorded in a notebook.

B. cepacia isolates = settings: 366 B. cepacia isolates; cited from earlier work
B. cepacia complex = settings: 2,621 strains in B. cepacia complex from cystic fibrosis patients; cited from earlier work
Burkholderia A396 = test: Antibiotic susceptibility, antibiotic disks on Muller-Hinton medium; assay type: cell-based, Burkholderia sp. A396; settings: 72-hour incubation at 25° C.
Method: Antibiotic susceptibility of Burkholderia A396 is tested using antibiotic disks on Muller-Hinton medium as described in PML Microbiological's technical data sheet #535.

[2] = system: barnyard grass (Echinochloa crus-galli) seedlings; test: Herbicidal laboratory assay, 96-well plate; assay type: in vivo; settings: after five days; for Grass seedlings (% Mortality): 10 μg/mL concentration per well
Method: The herbicidal activity of the active compound FR90128 (MW 540) is tested in a laboratory assay using one-week old barnyard grass (Echinochloa crus-galli) seedlings in a 96-well plate platform. One grass seedling was placed in each of the wells containing 99 microliters of DI water. One microliter aliquot of the pure compound in ethanol (10 mg/mL) is added into each well, and the plate is sealed with a lid. One microliter of ethanol in 99 microliters of water is used as a negative control. The treatments were done in eight replicates, and the sealed plate is incubated in a greenhouse under artificial lights (12 hr light/dark cycle). After five days, the results are read.
(§1) The herbicidal activity of templamide A, B, FR901465 and FR90128 are tested in a laboratory assay using one-week old barnyard grass (Echinochloa crus-galli) and lettuce (Lactuca sativa L.) seedlings in a 96-well plate platform. One seedling is placed in each of the wells containing 99 microliters of DI water. Into each well, a one microliter aliquot of the pure compound in ethanol (10 mg/mL) is added, and the plate is sealed with a lid. One microliter of ethanol in 99 microliters of water is used as a negative control. The treatments are done in eight replicates, and the sealed plate is incubated in a greenhouse under artificial lights (12 hr light/dark cycle). After five days, the results are read. […] The herbicidal activity of templamide A against lettuce seedlings is slightly lower than for the grass. On the other hand, templamide B provides a better (100%) control of lettuce seedlings (used as a model system for broadleaf weeds) than templamide A (Table 11).

Monilinia fructicola = test: In vitro PDA plate assay, filter paper disks; assay type: cell-based; settings: 10 μL of 1.25-20 mg/mL on disks; 5 days
Method: (§2) Fungicidal activity of FR90128 (MW 540) against three plant pathogenic fungi (Botrytis cinerea, Phytophtora sp., Monilinia fructicola) is tested in an in vitro PDA (potato dextrose agar) plate assay. Plates are inoculated with the fungus using a plug method. After the fungus had established and started to grow on the growth medium, eight sterile filter paper disks are placed on each plate about 1 cm from the edge in a circle. Ten microliters of ethanol solution containing 20, 15, 10, 7.5, 5, 2.5 1.25 mg FR90128/mL is added into filter paper disks, and the solution is left to evaporate. One disk imbedded with 10 μL of pure ethanol is used as a negative control. The assay is done with three replicates. Plates are incubated at room temperature for 5 days, after which the fungicidal activity is recorded by measuring the inhibition zone around each filter paper disk corresponding to different concentrations of FR90128.

Botrytis cinerea = test: In vitro PDA plate assay, filter paper disks; assay type: cell-based; settings: 5 days
Method: as §2

Phytophtora sp. = test: In vitro PDA plate assay, filter paper disks; assay type: cell-based; settings: 5 days
Method: as §2

[3] = system: 1st instar Beet Army Worm (Spodoptera exigua); test: 96-well diet overlay assay; assay type: in vivo; settings: 10 μg/mL concentration per well, 100 μl on diet, 6 days at 26° C.; for mortality at 10 µg/mL: Spodoptera exigua, 144 h
Method: The insecticidal activity of templamide A, B, FR901465 and FR90128 are tested in a laboratory assay using a 96-well diet overlay assay with ^1st instar Beet Armyworm larvae using microtiter plates with 200 μl of solid, artificial Beet Armyworm diet in each well. One hundred (100) μl of each test sample is pipetted on the top of the diet (one sample in each well), and the sample is let dry under flowing air until the surface is dry. Each sample was tested in six replicates, and water and a commercial Bt (B. thuringiensis) product are used as negative and positive controls, respectively. One first instar larvae of the test insect (Beet armyworm—Spodoptera exiqua) was placed in each well, and the plate was covered with plastic cover with airholes. The plates with insects were incubated at 26° C. for 6 days with daily mortality evaluations. Based on the results presented in Table 12, templamide A and B results in 40% and 80% mortality, respectively.

[4] = system: lettuce (Lactuca sativa L.) seedlings; test: Herbicidal laboratory assay, 96-well plate; assay type: in vivo; settings: 10 μg/mL concentration per well, after five days
Method: as §1

lettuce = test: 96 well plate lettuce seeding assay; assay type: in vivo; settings: bioassay-guided isolation
Method: The culture broth derived from the 10-L fermentation Burkholderia (A396) in Hy soy growth medium is extracted with Amberlite XAD-7 resin (Asolkar et al., 2006) by shaking the cell suspension with resin at 225 rpm for two hours at room temperature. The resin and cell mass are collected by filtration through cheesecloth and washed with DI water to remove salts. The resin, cell mass, and cheesecloth are then soaked for 2 h in acetone after which the acetone is filtered and dried under vacuum using rotary evaporator to give the crude extract. The crude extract is then fractionated by using reversed-phase C18 vacuum liquid chromatography (H2O/CH3OH; gradient […] to 0:100%) to give 10 fractions. These fractions are then concentrated to dryness using rotary evaporator and the resulting dry residues are screened for biological activity using 96 well plate lettuce seeding assay. The active fractions are then subjected to reversed phase HPLC (Spectra System P4000 (Thermo Scientific) to give pure compounds, which are then screened in above mentioned bioassays to locate/identify the active compounds. To confirm the identity of the compound, additional spectroscopic data such as LC/MS and NMR is recorded.

[5] = 10 μL of 1.25-20 mg/mL on disks

CC[C@H](C)[C@H]1O[C@]2(C=C[C@@H]1C)C[C@@H]1C[C@@H](C/C=C(\C)[C@@H](O[C@H]3C[C@H](OC)[C@@H](O[C@H]4C[C@H](OC)[C@@H](O)[C@H](C)O4)[C@H](C)O3)[C@@H](C)/C=C/C=C3\CO[C@@H]4[C@H](O)C(C)=C[C@@H](C(=O)O1)[C@]34O)O2 [Avermectin]
# live aphids Day 2 [1]: 0 | # live aphids Day 4 [1]: 0 | # live aphids Day 7 [1]: 0

CO/N=C(\C(=O)N[C@@H]1C(=O)N2C(C(=O)O)=C(COC(N)=O)CS[C@H]12)c1ccco1 [Cefuroxime]
resistance of isolates (in words) (B. cepacia isolates): most of them are resistant

O=C(N[C@H](CO)[C@H](O)c1ccc([N+](=O)[O-])cc1)C(Cl)Cl [Chloramphenicol]
strains resistant (B. cepacia complex): 85% | strains susceptible (B. cepacia complex): 15% | Susceptibility of Burkholderia A396 (in words) (Burkholderia A396): susceptible | resistance of isolates (in words) (B. cepacia isolates): most of them are resistant

O=C(O)c1cn(C2CC2)c2cc(N3CCNCC3)c(F)cc2c1=O [Ciprofloxacin]
strains susceptible (B. cepacia complex): 5% | Susceptibility of Burkholderia A396 (in words) (Burkholderia A396): susceptible | resistance of isolates (in words) (B. cepacia isolates): most of them are resistant

C/C=C1\NC(=O)C2CSSCC/C=C/C(CC(=O)NC(C(C)C)C(=O)N2)OC(=O)C(C(C)C)NC1=O (centres unmarked) [FR90128]
state of grass seedlings (in words) ([2]; 1 microliter of 10 mg/mL in ethanol added to 99 microliters water, all eight wells): dead with no green tissue left | effect on the growth of Monilinia (in words) (Monilinia fructicola): no effect | effect on hyphal growth of Botrytis (in words) (Botrytis cinerea; [5]): effective in controlling the hyphal growth | threshold concentration for inhibition, Botrytis (Botrytis cinerea; 10 μL per filter paper disk): 10 mg/mL | effect on hyphal growth of Phytophtora (in words) (Phytophtora sp.; [5]): effective in controlling the hyphal growth | threshold concentration for inhibition, Phytophtora (Phytophtora sp.; 10 μL per filter paper disk): 1.25 mg/mL | mortality at 10 µg/mL [3]: 90%

CCC(=O)OC(C)/C=C\C(=O)NC1CC(C)C(C/C=C(C)/C=C/C2OC(C)(O)C(O)C3(CO3)C2O)OC1C (centres unmarked) [FR901465]
Lettuce seedlings (% Mortality) [4]: 100% | Grass seedlings (% Mortality) [2]: 88% | (% Mortality) [3]: 50%

C[C@@H](O)[C@H]1C(=O)N2C(C(=O)O)=C(SCCN=CN)C[C@H]12 [Imipenem]
strains susceptible (B. cepacia complex): 7% | Susceptibility of Burkholderia A396 (in words) (Burkholderia A396): susceptible | resistance of isolates (in words) (B. cepacia isolates): most of them are resistant

NC[C@H]1O[C@H](O[C@H]2[C@H](O)[C@@H](O[C@H]3O[C@H](CO)[C@@H](O)[C@H](N)[C@H]3O)[C@H](N)C[C@@H]2N)[C@H](O)[C@@H](O)[C@@H]1O [Kanamycin]
Susceptibility of Burkholderia A396 (in words) (Burkholderia A396): susceptible

CCN1CCN(C(=O)N[C@@H](C(=O)N[C@@H]2C(=O)N3[C@@H]2SC(C)(C)[C@@H]3C(=O)O)c2ccccc2)C(=O)C1=O [Piperacillin]
Susceptibility of Burkholderia A396 (in words) (Burkholderia A396): susceptible

CCC(=O)OC(C)/C=C\C(=O)NC1CC(C)C(C/C=C(C)/C=C/C2OC(C)(O)C(O)C(O)(CO)C2O)OC1C (centres unmarked) [Templamide A]
mortality at 10 µg/mL [3]: 40%

CCC(=O)OC(C)/C=C\C(=O)NC1CC(C)C(C/C=C(C)/C=C/C2OC(C)(O)C(O)C3(CO3)C2O)OC1C (centres unmarked) [Templamide B]
Lettuce seedlings (% Mortality) [4]: 75% | Lettuce seedlings (% Mortality) ([4]; listed as templamide B): 100% | Grass seedlings (% Mortality) [2]: 0% | (% Mortality) [3]: 80%

CN(C)[C@@H]1C(O)=C(C(N)=O)C(=O)[C@@]2(O)C(O)=C3C(=O)c4c(O)cccc4[C@@](C)(O)[C@H]3C[C@@H]12 [Tetracycline]
resistance of isolates (in words) (B. cepacia isolates): most of them are resistant

Cc1cc(NS(=O)(=O)c2ccc(N)cc2)no1 [sulphametoxacole]
resistance of isolates (in words) (B. cepacia isolates): most of them are resistant

COC(=O)c1nc(CC(C)C)oc1-c1c[nH]c2ccccc12 [templazole A]
herbicidal activity of pure compound (in words) (lettuce): active

templazole B
herbicidal activity of pure compound (in words) (lettuce): herbicidally active
